Literature values in patent US20230085607A1, “IVERMECTIN COMPOSITIONS FOR TREATMENT OF COVID-19” (priority 2021, published 2023).
Read-outs that look alike come from different tables or passages of the source.

How the values were obtained:
[1] = tested on: lipopolysaccharide-activated macrophages
[2] = tested on: macrophage foam cells
[3] = tested on: rats subjected to myocardial ischemia and reperfusion; conditions: 10 mg/kg intravenously then 10 mg/kg/h infusion
[4] = tested on: mice with experimental colitis
[5] = tested on: rats with polymicrobial sepsis (CL2P); conditions: 10 mg/kg intraperitoneally at 1 and 6 h after CL2P and every 12 h
[6] = tested on: mice with polymicrobial sepsis (CL2P); conditions: 10 mg/kg intraperitoneally, monitored 72 h after CL2P
[7] = tested on: mice with lethal endotoxemia or lethal sepsis
[8] = tested on: mice with LPS-induced ARDS
[9] = tested on: LPS-stimulated primary peritoneal macrophages
[10] = tested on: LPS-challenged macrophages; conditions: 0 to 50 μM, 6 h pre-incubation, LPS 24 h
[11] = tested on: mice with LPS-induced ARDS; remark: listed apart in the source
[12] = tested on: nitric oxide
[13] = tested on: mice challenged with endotoxin (LPS O111:B4) or live Escherichia coli; conditions: for concentration of IL-1 α: controls 1187.0±278.64
[14] = 50 and 100 mg/kg/day, compared with MD group
[15] = 50 mg/kg, LPS 5 mg/kg 3 days later

epigallocatechin-3-gallate [EGCG]
disappearance of inhibitor kappaB from cytosolic fraction [1]: blocked | NO production ([1]; cells cotreated with EGCG and LPS): Inhibition | activation of nuclear factor-kappaB ([1]; electrophoretic mobility shift assay): blocked | TNF-α-induced nuclear factor-κB (NF-κB) activity [2]: inhibition | TNF-α-induced downregulation of ABCA1 and decrease in cholesterol efflux to apoA1 ([2]; pretreatment): attenuated | myeloperoxidase activity [3]: reduced | myocardial damage [3]: reduced | plasma IL-6 levels [3]: decreased | plasma creatine phosphokinase levels [3]: decreased | colonic tissue erosion [4, 14]: attenuation | disease activity index (DAI) [4, 14]: decreased | spleen index (SI) [4, 14]: decreased | HIF-1α and STATS protein expression in the colon ([4]; mouse, in vivo): decreasing | plasma levels of IL-10 and TGF-β1 ([4]; mouse, in vivo): increasing | release of IL-6 and IL-17 ([4]; plasma): reduce | hypotension (mean arterial blood pressure) [5]: significantly improved | survival [6]: significantly improved | rescue from lethal sepsis ([7]; first dose 24 hours after cecal ligation and puncture): rescued | protection against lethal endotoxemia ([7]; intraperitoneal administration): protected | systemic accumulation of HMGB1, IL-6 and KC ([7]; mouse, in vivo): attenuation | changes in blood gases ([8]; 10 mg/kg ip): decreased | expression of IκB-α ([8]; 10 mg/kg ip): increased | expression of TLR-4, MyD88, TRIF and p-p65 in the lung tissue ([8]; 10 mg/kg ip): alleviated | expression of TNF-α, IL-1β and IL-6 in the lung, serum and bronchoalveolar lavage fluid ([8]; 10 mg/kg ip): significantly decreased | expression of p65 ([8]; 10 mg/kg ip): no influence | histological lesions ([8]; 10 mg/kg ip): reduced | myeloperoxidase (MPO) activity ([8]; 10 mg/kg ip): reduced | wet-to-dry weight ratios ([8]; 10 mg/kg ip): reduced | LPS-induced ARDS ([8]; 10 mg/kg ip 1 h before LPS 10 mg/kg ip): attenuated

C[S+]([O-])CCCCN=C=S (centres unmarked) [sulforaphane, 1-isothiocyanato-4-(methylsulfinyl)-butane]
HO-1 expression ([9]; LPS-stimulated Nrf2 (+/+) primary peritoneal macrophages): significantly augmented | LPS-stimulated mRNA expression, protein expression and production of TNF-alpha, IL-1beta, COX-2 and iNOS ([9]; Nrf2 (+/+) primary peritoneal macrophages, pretreatment): potently inhibited | anti-inflammatory effect ([9]; Nrf2 (−/−) primary peritoneal macrophages): attenuated | direct reaction with cytokines or NO [10]: neither directly reacted | expression of NO and cytokines [10]: able to prevent | inducible nitric oxide synthase (iNOS) activity ([11]; 50 mg/kg): significantly inhibited | nuclear factor-κB protein expression ([11]; 50 mg/kg): significantly decreased | prostaglandin E2 (PGE2) production ([11]; 50 mg/kg): significantly inhibited | serum levels of interleukin-6 (IL-6) ([11]; 50 mg/kg, ELISA): significantly decreased | serum levels of tumor necrosis factor-α (TNF-α) ([11]; 50 mg/kg, ELISA): significantly decreased | lactate dehydrogenase (LDH) activity [11, 15]: significantly decreased | wet-to-dry ratio of the lungs [11, 15]: significantly decreased | cyclooxygenase-2 (COX-2) protein expression ([11]; 50 mg/kg, western blot): significantly inhibited | matrix metalloproteinase-9 (MMP-9) protein expression ([11]; 50 mg/kg, western blot): significantly inhibited | Nrf2/antioxidant response element (ARE) pathway ([11]; pre-treatment): activated

CC1=CC(=O)C(C(C)C)=CC1=O [thymoquinone]
lipopolysaccharide-induced inflammatory reactions [12]: suppressed effectively | concentration of nitric oxide ([12]; lipopolysaccharide-induced): reduced significantly | concentration of IL-1 α ([13]; 0.75 mg/kg dose): 310.8 ± 70.93 pg/mL | IL-10 levels ([13]; 0.75 mg/kg, controls 5505.2±333.96): 2885.0 ± 553.98 pg/mL | concentration of IL-1 α ([13]; 1 mg/kg group): 428.3 ± 71.32 pg/mL | levels of IL-2 ([13]; P=0.0851): relatively lower | levels of TNF-α ([13]; P=0.1817): relatively lower | mortality reduction ([13]; mice, sepsis): 80-90% | renal and hepatic biomarker profiles ([13]; mice, sepsis): improved
